Columns and labels:
[1] = system: Bacillus cereus NBRC15305; assay: Sterilizing effect on floor surface after wiping off imitation vomit, carpet; type: cell-based
Text: (§1) 1) Chlorous acid aqueous solution formulation (see Example 1: Table 11) Treatment sheet (material: 100% cotton): (about 27×40 cm) *Impregnated at a ratio of weight of treatment sheet (g): amount of liquid (ml)=1:3 2) Imitation vomit Miso solution: adjusted to pH of 2 with hydrochloric acid 3) Test Microbes that were Used E. coli: Escherichia coli IF03927 Staphylococcus aureus: Staphylococcus aureus IF0 12732 Thermoduric Microbes (Bacillus cereus): Bacillus cereus NBRC15305 Microbes of the genus Salmonella: Salmonella Enteritidis IF03313 Enterohemorrhagic Escherichia coli O157: Escherichia coli O157 Enterohemorrhagic Escherichia coli O111: Escherichia coli O111 Enterohemorrhagic Escherichia coli O26: Escherichia coli O26
(§2) (1) Imitation vomit was spread in an area about the size of an A4 sheet. (2) 5 dry sheets were laid thereon. (3) An agent solution was poured on the dry sheets to wipe off the imitation vomit. (4) A cotton swab was soaked with sterile saline. A portion where imitation vomit was spread was scrubbed with the cotton swab to collect microbes remaining on the floor. After suspending in saline, the solution was spread on a petri dish and cultured. The number of each of the microbes was measured. (5) Test operations 3 and 4 were repeated a total of 7 times (repeated until the imitation vomit could be removed completely).

[2] = system: Enterohemorrhagic Escherichia coli O111; assay: as above; type: cell-based
Text: as §1, §2

[3] = system: Enterohemorrhagic Escherichia coli O157; assay: as above; type: cell-based; conditions: 1000 ppm available chlorine
Text: as §1, §2

[4] = system: Enterohemorrhagic Escherichia coli O26; assay: as above; type: cell-based; conditions: 1000 ppm available chlorine
Text: as §1, §2

[5] = system: Staphylococcus aureus IF0 12732; assay: as above; type: cell-based; conditions: 1000 ppm available chlorine
Text: as §1, §2

[6] = Deodorizing effect (chemical deodorization, gas detector tube); conditions: 400 ppm, spray 20 cc
Text: (§3) In order to evaluate tests on deodorizing effects, the present Example examined deodorizing effects by using standards regarding air freshening and deodorization ([II]-2 Method of Testing Deodorizing Efficacy (Chemical Deodorization)) set forth by the Air Fresheners and Deodorizers Conference (http://www.houkou.gr.jp/) as the efficacy testing method, which is adopted by Japan Food Research Laboratories.
(§4) Ammonium odor: Ammonium Standard Solution II (Wako Pure Chemical Industries, for testing malodorous substances) Amine odor: methyl mercaptan standard solution (Wako Pure Chemical Industries, for testing malodorous substances) Sulfur odor: hydrogen sulfide (self-made, used hydrogen sulfide that was generated by adding sulfuric acid to zinc sulfide)
(§5) Gas detector tube made by GASTEC Corporation Ammonium odor: Detector tube ammonium 3 L made by GASTEC Corporation Amino odor: Detector tube methyl mercaptan 71 made by GASTEC Corporation Sulfur odor: Detector tube hydrogen sulfide 4 LL made by GASTEC Corporation
(§6) Tests were conducted in compliance with ([II]-2 Method of Testing Deodorizing Efficacy (Chemical Deodorization)) set forth by the Air Fresheners and Deodorizers Conference.
(§7) The tests were carried out by static culture method, using a commercially-available airbag with a spigot having a volume of about 10 L as test containers. The volume of airbags was appropriately changed in accordance with the size of the product.
(§8) The bags were filled with odorless air. Malodor concentrations were measured over time at room temperature (about 20° C.). (3 points or higher, detection tube method (FIG. 16), measured by an instrument analysis method or olfactory measurement method. When decrease in the blank was observed, the decrease was suitably corrected. When measuring by olfactory measuring method, the airbag spigot was opened for direct sniffing, or gas was transferred to an odor bag while wearing a mask to perform olfactory measurement in an autonomic respiration form. Measured air was not returned to the source).
Next, for amine odor (methyl mercaptan), the residual concentrations were detected and recorded for control (no specimen), 20 ml (cc) of distilled water, sodium hypochlorite (expressed as Na hypochlorite, 400 ppm), and chlorous acid aqueous solution (expressed as CAAS, 400 ppm) prior to spraying and 0 hour, 3 hours, 6 hours, 9 hours, and 24 hours after spraying. The experiment was conducted twice.

[7] = as above; conditions: spray 20 cc
Text: as §3, §4, §5, §6, §7, §8

[8] = stored at 25° C. Day 0, 1000 ppm available chlorine
[9] = stored at 25° C. Day 7, Sodium Hypochlorite, 0 ppm
[10] = stored at 25° C. Day 0, 1000 ppm
[11] = first experiment (Table 55), 0 h after spraying
[12] = first experiment (Table 55), 3 h after spraying
[13] = first experiment (Table 55), 6 h after spraying
[14] = first experiment (Table 55), 9 h after spraying
[15] = first experiment (Table 55), 24 h after spraying
[16] = first experiment (Table 55), before spraying
[17] = second experiment (Table 56), 0 h after spraying
[18] = second experiment (Table 56), 3 h after spraying
[19] = second experiment (Table 56), 6 h after spraying
[20] = second experiment (Table 56), 9 h after spraying
[21] = second experiment (Table 56), 24 h after spraying
[22] = second experiment (Table 56), before spraying

OCl [Sodium Hypochlorite, sodium hypochlorite]
Number of Times Wiped 1 Time (remaining microbes) [1, 8]: <10 | Number of Times Wiped 2 Times (remaining microbes) [1, 8]: <10 | Number of Times Wiped 3 Times (remaining microbes) [1, 8]: <10 | Number of Times Wiped 1 Time (remaining microbes) [1, 9]: 6.7 × 10^3 | Number of Times Wiped 2 Times (remaining microbes) [1, 9]: 5.2 × 10^3 | Number of Times Wiped 3 Times (remaining microbes) [1, 9]: 4.9 × 10^3 | Number of Times Wiped 7 Times (remaining microbes) [1, 9]: 2.0 × 10^3 | Number of Times Wiped 1 Time (remaining microbes) [2, 10]: <10 | Number of Times Wiped 2 Times (remaining microbes) [2, 10]: <10 | Number of Times Wiped 3 Times (remaining microbes) [2, 10]: <10 | Number of Times Wiped 1 Time (remaining microbes) [2, 9]: 2.3 × 10^3 | Number of Times Wiped 2 Times (remaining microbes) [2, 9]: 1.9 × 10^3 | Number of Times Wiped 3 Times (remaining microbes) [2, 9]: 1.1 × 10^3 | Number of Times Wiped 1 Time (remaining microbes) ([3]; stored at 25° C. Day 0): <10 | Number of Times Wiped 2 Times (remaining microbes) ([3]; stored at 25° C. Day 0): <10 | Number of Times Wiped 3 Times (remaining microbes) ([3]; stored at 25° C. Day 0): <10 | Number of Times Wiped 1 Time (remaining microbes) ([3]; stored at 25° C. Day 7): <10 | Number of Times Wiped 2 Times (remaining microbes) ([3]; stored at 25° C. Day 7): <10 | Number of Times Wiped 3 Times (remaining microbes) ([3]; stored at 25° C. Day 7): <10 | Microbes remaining on floor surface, wiped 1 Time ([4]; Day 0 at 25° C.): <10 | Microbes remaining on floor surface, wiped 2 Times ([4]; Day 0 at 25° C.): <10 | Microbes remaining on floor surface, wiped 3 Times ([4]; Day 0 at 25° C.): <10 | Microbes remaining on floor surface, wiped 1 Time ([4]; Day 7 at 25° C.): 8.8 × 10^3 | Microbes remaining on floor surface, wiped 2 Times ([4]; Day 7 at 25° C.): 4.9 × 10^3 | Microbes remaining on floor surface, wiped 3 Times ([4]; Day 7 at 25° C.): 3.0 × 10^3 | Number of Times Wiped 1 Time (remaining microbes) ([5]; stored at 25° C. Day 0): <10 | Number of Times Wiped 2 Times (remaining microbes) ([5]; stored at 25° C. Day 0): <10 | Number of Times Wiped 3 Times (remaining microbes) ([5]; stored at 25° C. Day 0): <10 | Number of Times Wiped 1 Time (remaining microbes) ([5]; stored at 25° C. Day 7): <10 | Number of Times Wiped 2 Times (remaining microbes) ([5]; stored at 25° C. Day 7): <10 | Number of Times Wiped 3 Times (remaining microbes) ([5]; stored at 25° C. Day 7): <10 | residual concentration of methyl mercaptan, after correction (Control = 100) [6, 11]: 22 | residual concentration of methyl mercaptan, before correction [6, 11]: 20 ppm | residual concentration of methyl mercaptan, after correction (Control = 100) [6, 12]: 0 | residual concentration of methyl mercaptan, before correction [6, 12]: 0 ppm | residual concentration of methyl mercaptan, after correction (Control = 100) [6, 13]: 0 | residual concentration of methyl mercaptan, before correction [6, 13]: 0 ppm | residual concentration of methyl mercaptan, after correction (Control = 100) [6, 14]: 14 | residual concentration of methyl mercaptan, before correction [6, 14]: 5 ppm | residual concentration of methyl mercaptan, after correction (Control = 100) [6, 15]: 25 | residual concentration of methyl mercaptan, before correction [6, 15]: 6 ppm | residual concentration of methyl mercaptan, after correction (Control = 100) [6, 16]: 100 | residual concentration of methyl mercaptan, before correction [6, 16]: 90 ppm | residual concentration of methyl mercaptan, after correction (Control = 100) [6, 17]: 11 | residual concentration of methyl mercaptan, before correction [6, 17]: 8 ppm | residual concentration of methyl mercaptan, after correction (Control = 100) [6, 18]: 11 | residual concentration of methyl mercaptan, before correction [6, 18]: 5 ppm | residual concentration of methyl mercaptan, after correction (Control = 100) [6, 19]: 12 | residual concentration of methyl mercaptan, before correction [6, 19]: 5 ppm | residual concentration of methyl mercaptan, after correction (Control = 100) [6, 20]: 24 | residual concentration of methyl mercaptan, before correction [6, 20]: 7 ppm | residual concentration of methyl mercaptan, after correction (Control = 100) [6, 21]: 35 | residual concentration of methyl mercaptan, before correction [6, 21]: 5 ppm | residual concentration of methyl mercaptan, after correction (Control = 100) [6, 22]: 100 | residual concentration of methyl mercaptan, before correction [6, 22]: 70 ppm | residual concentration of hydrogen sulfide, after correction (Control = 100) ([7]; Table 57, 0 h after spraying): 0 | residual concentration of hydrogen sulfide, before correction ([7]; Table 57, 0 h after spraying): 0 ppm | residual concentration of hydrogen sulfide, after correction (Control = 100) ([7]; Table 57, 3 h after spraying): 0 | residual concentration of hydrogen sulfide, before correction ([7]; Table 57, 3 h after spraying): 0 ppm | residual concentration of hydrogen sulfide, after correction (Control = 100) ([7]; Table 57, 6 h after spraying): 0 | residual concentration of hydrogen sulfide, before correction ([7]; Table 57, 6 h after spraying): 0 ppm | residual concentration of hydrogen sulfide, after correction (Control = 100) ([7]; Table 57, 9 h after spraying): 0 | residual concentration of hydrogen sulfide, before correction ([7]; Table 57, 9 h after spraying): 0 ppm | residual concentration of hydrogen sulfide, after correction (Control = 100) ([7]; Table 57, 24 h after spraying): 0 | residual concentration of hydrogen sulfide, before correction ([7]; Table 57, 24 h after spraying): 0 ppm | residual concentration of hydrogen sulfide, after correction (Control = 100) ([7]; Table 57, before spraying): 100 | residual concentration of hydrogen sulfide, before correction ([7]; Table 57, before spraying): 40 ppm | residual concentration of hydrogen sulfide, after correction (Control = 100) ([7]; Table 58, 0 h after spraying): 0 | residual concentration of hydrogen sulfide, before correction ([7]; Table 58, 0 h after spraying): 0 ppm | residual concentration of hydrogen sulfide, after correction (Control = 100) ([7]; Table 58, 3 h after spraying): 0 | residual concentration of hydrogen sulfide, before correction ([7]; Table 58, 3 h after spraying): 0 ppm | residual concentration of hydrogen sulfide, after correction (Control = 100) ([7]; Table 58, 6 h after spraying): 0 | residual concentration of hydrogen sulfide, before correction ([7]; Table 58, 6 h after spraying): 0 ppm | residual concentration of hydrogen sulfide, after correction (Control = 100) ([7]; Table 58, 9 h after spraying): 0 | residual concentration of hydrogen sulfide, before correction ([7]; Table 58, 9 h after spraying): 0 ppm | residual concentration of hydrogen sulfide, after correction (Control = 100) ([7]; Table 58, 24 h after spraying): 0 | residual concentration of hydrogen sulfide, before correction ([7]; Table 58, 24 h after spraying): 0 ppm | residual concentration of hydrogen sulfide, after correction (Control = 100) ([7]; Table 58, before spraying): 100 | residual concentration of hydrogen sulfide, before correction ([7]; Table 58, before spraying): 50 ppm

Reference: patent US20170015555A1, “LONG-TERM PRESERVATION AND NOVEL APPLICATION OF CHLOROUS ACID AQUEOUS SOLUTION FORMULATION” (priority 2013, published 2017)
